Where two headings read alike, the source gives them in different places.
Legend:
NCI-H358 (K-Ras G12C) = assay: CellTiter-Glo cell viability assay, NCI-H358; format: cell-based, human; conditions: 5-day treatment, read-out: H358 Cell Viability assay data (K-Ras G12C, IC50)
How it was run: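 NCI-H358 (K-Ras G12C) cells treated with compound dispensed directly into plates. CellTiter-Glo luminescence read on day 5 after ~30 min equilibration to room temperature. Signal normalised to DMSO average ×100, then fitted with a four-parameter logistic model.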

NRAS G12C = NRAS G12C (Homo sapiens (Human), UniProt P01111+P62937, G12C); assay: Ras-Raf disruption/FRET/MOA assay (BRAF RBD, Cyclophilin A); format: biochemical; conditions: read-out: NRAS G12C FRET data IC50
Sequence of NRAS G12C (P01111 whole entry G12C): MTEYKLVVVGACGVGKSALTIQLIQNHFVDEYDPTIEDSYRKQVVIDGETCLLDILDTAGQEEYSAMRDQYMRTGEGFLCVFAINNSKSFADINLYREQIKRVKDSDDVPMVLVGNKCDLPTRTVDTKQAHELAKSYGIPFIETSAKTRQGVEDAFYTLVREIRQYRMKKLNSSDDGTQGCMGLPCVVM
Sequence of NRAS G12C (P62937 whole entry): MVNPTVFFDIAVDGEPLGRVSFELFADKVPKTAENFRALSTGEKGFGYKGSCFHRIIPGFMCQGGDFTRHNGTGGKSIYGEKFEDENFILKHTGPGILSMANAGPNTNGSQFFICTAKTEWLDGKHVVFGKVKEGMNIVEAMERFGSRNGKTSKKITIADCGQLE
How it was run: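 First, 25 μM Cyclophilin A, 12.5 nM His6-Ras-GMPPNP and 50 nM GST-BRAF RBD are mixed with diluted compound at pH 7.3. Next, 3 h at 25° C. Then 10 nM anti-His Eu-W1024 plus 50 nM anti-GST allophycocyanin for 1.5 h before TR-FRET reading.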

KRAS G13D = KRAS G13D (Homo sapiens (Human), UniProt P01116+P62937, G13D); assay: as above; format: biochemical; conditions: read-out: KRAS G13D FRET data IC50
Sequence of KRAS G13D (P01116 other isoform, or with tags, fused parts or gaps G13D): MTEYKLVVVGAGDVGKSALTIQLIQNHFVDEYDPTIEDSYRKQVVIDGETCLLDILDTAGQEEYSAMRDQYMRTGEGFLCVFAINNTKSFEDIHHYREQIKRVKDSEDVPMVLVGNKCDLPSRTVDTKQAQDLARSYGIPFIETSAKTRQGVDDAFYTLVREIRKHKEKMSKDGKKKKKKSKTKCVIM
Sequence of KRAS G13D (P62937 whole entry): as the sequence (P62937 whole entry) above
How it was run: (§1)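 His6-K-Ras-GMPPNP (12.5 nM), GST-BRAF RBD (50 nM) and tagless Cyclophilin A (25 μM) were combined in 25 mM HEPES pH 7.3 with 100 mM NaCl, 5 mM MgCl2, 0.1% BSA and 0.002% Tween20, with compound as a 10-point 3-fold series from 30 μM final, then incubated 3 h at 25° C.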

KRAS WT = KRAS WT (Homo sapiens (Human), UniProt P01116+P62937); assay: as above; format: biochemical; conditions: read-out: KRAS WT FRET data IC50
Sequence of KRAS WT (P01116 other isoform, or with tags, fused parts or gaps): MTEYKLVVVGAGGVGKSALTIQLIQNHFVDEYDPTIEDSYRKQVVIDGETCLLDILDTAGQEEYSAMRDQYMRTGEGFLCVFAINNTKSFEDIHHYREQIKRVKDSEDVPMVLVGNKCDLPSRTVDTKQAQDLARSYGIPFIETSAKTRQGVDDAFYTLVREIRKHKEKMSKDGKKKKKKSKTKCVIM
Sequence of KRAS WT (P62937 whole entry): as the sequence (P62937 whole entry) above
How it was run: as §1

KRAS G13C = KRAS G13C (Homo sapiens (Human), UniProt P01116+P62937, G13C); assay: as above; format: biochemical; conditions: read-out: KRAS G13C FRET IC50
Sequence of KRAS G13C (P01116 other isoform, or with tags, fused parts or gaps G13C): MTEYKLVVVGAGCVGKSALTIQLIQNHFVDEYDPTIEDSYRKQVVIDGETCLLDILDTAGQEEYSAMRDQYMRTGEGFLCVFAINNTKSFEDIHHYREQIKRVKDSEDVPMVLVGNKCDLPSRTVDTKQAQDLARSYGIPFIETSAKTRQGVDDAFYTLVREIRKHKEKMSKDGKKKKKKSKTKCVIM
Sequence of KRAS G13C (P62937 whole entry): as the sequence (P62937 whole entry) above
How it was run: as §1

KRAS G12V = KRAS G12V (Homo sapiens (Human), UniProt P01116+P62937, G12V); assay: as above; format: biochemical; conditions: read-out: KRAS G12V FRET IC50
Sequence of KRAS G12V (P01116 other isoform, or with tags, fused parts or gaps G12V): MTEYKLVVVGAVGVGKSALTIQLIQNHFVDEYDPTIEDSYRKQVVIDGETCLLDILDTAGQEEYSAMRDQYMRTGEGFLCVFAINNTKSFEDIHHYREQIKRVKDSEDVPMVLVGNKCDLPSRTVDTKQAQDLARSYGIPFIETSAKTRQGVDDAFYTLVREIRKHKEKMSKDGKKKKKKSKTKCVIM
Sequence of KRAS G12V (P62937 whole entry): as the sequence (P62937 whole entry) above
How it was run: as §1

KRAS G12S = KRAS G12S (Homo sapiens (Human), UniProt P01116+P62937, G12S); assay: as above; format: biochemical; conditions: read-out: KRAS G12S FRET IC50
Sequence of KRAS G12S (P01116 other isoform, or with tags, fused parts or gaps G12S): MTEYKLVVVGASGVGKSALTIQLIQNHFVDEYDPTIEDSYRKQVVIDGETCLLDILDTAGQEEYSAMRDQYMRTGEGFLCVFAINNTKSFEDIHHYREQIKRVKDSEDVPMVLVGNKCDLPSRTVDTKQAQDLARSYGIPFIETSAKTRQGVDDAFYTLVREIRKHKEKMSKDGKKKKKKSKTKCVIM
Sequence of KRAS G12S (P62937 whole entry): as the sequence (P62937 whole entry) above
How it was run: as §1

KRAS G12C = KRAS G12C (Homo sapiens (Human), UniProt P01116+P62937, G12C); assay: as above; format: biochemical; conditions: read-out: KRAS G12C FRET IC50
Sequence of KRAS G12C (P01116-2 other isoform, or with tags, fused parts or gaps G12C): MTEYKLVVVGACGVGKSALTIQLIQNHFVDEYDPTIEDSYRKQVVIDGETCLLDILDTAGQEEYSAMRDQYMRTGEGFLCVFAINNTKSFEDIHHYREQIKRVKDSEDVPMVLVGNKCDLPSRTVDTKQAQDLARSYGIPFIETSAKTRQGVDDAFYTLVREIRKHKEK
Sequence of KRAS G12C (P62937 whole entry): as the sequence (P62937 whole entry) above
How it was run: as §1

KRAS G12D = KRAS G12D (Homo sapiens (Human), UniProt P01116+P62937, G12D); assay: as above; format: biochemical; conditions: read-out: KRAS G12D FRET IC50
Sequence of KRAS G12D (P01116 other isoform, or with tags, fused parts or gaps G12D): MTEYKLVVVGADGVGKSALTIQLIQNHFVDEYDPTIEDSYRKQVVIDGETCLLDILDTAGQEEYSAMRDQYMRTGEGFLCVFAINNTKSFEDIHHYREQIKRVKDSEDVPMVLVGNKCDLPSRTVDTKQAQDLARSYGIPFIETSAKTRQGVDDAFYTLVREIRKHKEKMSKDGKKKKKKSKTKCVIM
Sequence of KRAS G12D (P62937 whole entry): as the sequence (P62937 whole entry) above
How it was run: as §1

[1] = tested on: NCI-H358 cells (K-Ras G12C); assay: CellTiter-Glo cell viability, NCI-H358; format: cell-based, human; conditions: K-Ras G12C, 5-day treatment, read-out: H358 Cell Viability IC50
How it was run: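 Compounds dispensed directly onto seeded cells; on day 5 plates equilibrated ~30 min to room temperature and luminescence read. Signal normalized to DMSO average (%) and fitted by four-parameter logistic.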

| SMILES | IC50 (NCI-H358 (K-Ras G12C); Homo sapiens, NCI-H358, 120 h) [nM] | IC50 (NRAS G12C) [nM] | IC50 (KRAS G13D) [nM] | IC50 (KRAS WT) [nM] | IC50 (KRAS G13C) [nM] | IC50 (KRAS G12V) [nM] | IC50 (KRAS G12S) [nM] | IC50 (KRAS G12C) [nM] | IC50 (KRAS G12D) [nM] | IC50 ([1]; Homo sapiens, NCI-H358, 120 h) [nM] | IC50 (NCI-H358 (K-Ras G12C)) [nM] | IC50 [1] [nM] |
| --- | --- | --- | --- | --- | --- | --- | --- | --- | --- | --- | --- | --- |
| CCn1c(-c2cccnc2[C@H](C)OC)c2c3cc(ccc31)-c1csc(n1)C[C@H](NC(=O)[C@H](C(C)C)N(C)C(=O)N1CCOC[C@@H]1C)C(=O)N1CCC[C@H](N1)C(=O)OCC(C)(C)C2 [Compound A403] | < 10 | 100 to 1000 | 100 to 1000 | 100 to 1000 | 100 to 1000 | 100 to 1000 | 100 to 1000 | 100 to 1000 | 1000 to 10000 | 10 to 100 |  |  |
| CCn1c(-c2cccnc2[C@H](C)OC)c2c3cc(ccc31)-c1cc(O)cc(c1)C[C@H](NC(=O)[C@H](C(C)C)N(C)C(=O)[C@@H]1CCCC[C@@H]1N)C(=O)N1CCC[C@H](N1)C(=O)OCC(C)(C)C2 [Compound A395] | < 10 | 10 to 100 | 10 to 100 | 10 to 100 | 10 to 100 | 100 to 1000 | 10 to 100 | 10 to 100 | 10 to 100 | 100 to 1000 |  |  |
| CCn1c(-c2cccnc2[C@H](C)OC)c2c3cc(ccc31)-c1csc(n1)C[C@H](NC(=O)[C@H](C(C)C)N(C)C(=O)[C@H]1CCN(C(=O)CN(C)C)C1)C(=O)N1CCC[C@H](N1)C(=O)OCC(C)(C)C2 [Compound A97] | 10 to 100 | 100 to 1000 | 1000 to 10000 | 1000 to 10000 | 1000 to 10000 | 1000 to 10000 | 1000 to 10000 | 100 to 1000 | 1000 to 10000 | 1000 to 10000 |  |  |
| CCn1c(-c2cccnc2[C@H](C)OC)c2c3cc(ccc31)-c1cc(O)cc(c1)C[C@H](NC(=O)[C@H](C(C)C)N(C)C(=O)[C@@H]1[C@H]3CC[C@H](C3)[C@@H]1N)C(=O)N1CCC[C@H](N1)C(=O)OCC(C)(C)C2 [Compound A417] | 10 to 100 | 100 to 1000 | 100 to 1000 | 100 to 1000 | 100 to 1000 | 1000 to 10000 | 100 to 1000 | 100 to 1000 | 100 to 1000 | 100 to 1000 |  |  |
| CCn1c(-c2cccnc2[C@H](C)OC)c2c3cc(ccc31)-c1cc(O)cc(c1)C[C@H](NC(=O)[C@H](C(C)C)N(C)C(=O)[C@H]1CCN(C(=O)[C@@H](C)N(C)C)C1)C(=O)N1CCC[C@H](N1)C(=O)OCC(C)(C)C2 [Compound A386] |  | 10 to 100 | 10 to 100 | 10 to 100 | 10 to 100 | 100 to 1000 | 10 to 100 | 10 to 100 | 10 to 100 | 100 to 1000 |  |  |
| CCn1c(-c2cccnc2[C@H](C)OC)c2c3cc(ccc31)-c1csc(n1)C[C@H](NC(=O)[C@H](C(C)C)N(C)C(=O)N1C[C@@H](C)N(C)C[C@@H]1C)C(=O)N1CCC[C@H](N1)C(=O)OCC(C)(C)C2 [Compound A292] | < 10 | 100 to 1000 | 1000 to 10000 | 100 to 1000 | 1000 to 10000 | 1000 to 10000 | 1000 to 10000 | 100 to 1000 | 1000 to 10000 | 100 to 1000 |  |  |
| CCN(CC)C(=O)N(C)[C@H](C(=O)N[C@H]1Cc2nc(cs2)-c2ccc3c(c2)c(c(-c2cccnc2[C@H](C)OC)n3CC)CC(C)(C)COC(=O)[C@@H]2CCCN(N2)C1=O)C(C)C [Compound A351] | < 10 | 10 to 100 | 100 to 1000 | 10 to 100 | 10 to 100 | 100 to 1000 | 10 to 100 | 10 to 100 | 100 to 1000 | 10 to 100 |  |  |
| CCn1c(-c2cccnc2[C@H](C)OC)c2c3cc(ccc31)-c1cc(O)cc(c1)C[C@H](NC(=O)[C@@H](C(C)C)N(C)C(C)=O)C(=O)N1CCC[C@H](N1)C(=O)OCC(C)(C)C2 [Compound A256] |  | 1000 to 10000 | 1000 to 10000 | 1000 to 10000 | 100 to 1000 | 1000 to 10000 | 1000 to 10000 | 1000 to 10000 | > 10000 | 1000 to 10000 |  |  |
| CCn1c(-c2cc(N3CCN(C)CC3)cnc2[C@H](C)OC)c2c3cc(ccc31)-c1nc(co1)C[C@H](NC(=O)[C@H]1[C@H](C)[C@@H]1C)C(=O)N1CCC[C@H](N1)C(=O)OCC(C)(C)C2 [Compound A391, (1r,2R,3S)—N-((6^3S,4S,Z)-1^1-ethyl-1^2-(2-((S)-1-methoxyethyl)-5-(4-methylpiperazin-1-yl)pyridin-3-yl)-10,10-dimethyl-5,7-dioxo-6^1,6^2,6^3,6^4,6^5,6^6-hexahydro-1^1H-8-oxa-2 (2,4)-oxazola-1 (5,3)-indola-6 (1,3)-pyridazinacycloundecaphane-4-yl)-2,3-dimethylcyclopropane-1-carboxamide] |  |  |  |  | 10 to 100 | 10 to 100 | 10 to 100 | 10 to 100 | 10 to 100 |  | < 10 | 10 to 100 |
| CCn1c(-c2cccnc2[C@H](C)OC)c2c3cc(ccc31)-c1csc(n1)C[C@H](NC(=O)[C@H](C(C)C)N1CCCN(C)C1=O)C(=O)N1CCC[C@H](N1)C(=O)OCC(C)(C)C2 [Compound A317] | < 10 | 1000 to 10000 | 1000 to 10000 | 1000 to 10000 | 1000 to 10000 | 1000 to 10000 | 1000 to 10000 | 1000 to 10000 | > 10000 | 100 to 1000 |  |  |
| CCn1c(-c2cccnc2[C@H](C)OC)c2c3cc(ccc31)-c1csc(n1)C[C@H](NC(=O)[C@H](C(C)C)N(C)C(=O)N1CC(N3CCC3)C1)C(=O)N1CCC[C@H](N1)C(=O)OCC(C)(C)C2 [Compound A295] | < 10 | 100 to 1000 | 100 to 1000 | 100 to 1000 | 100 to 1000 | 100 to 1000 | 100 to 1000 | 100 to 1000 | 1000 to 10000 | 10 to 100 |  |  |
| CCn1c(-c2cccnc2[C@H](C)OC)c2c3cc(ccc31)-c1cc(O)cc(c1)C[C@H](NC(=O)[C@H](C(C)C)N(C)C(=O)C13CCC(CO1)C3)C(=O)N1CCC[C@H](N1)C(=O)OCC(C)(C)C2 [Compound A411] | < 10 | 10 to 100 |  |  | 100 to 1000 | 100 to 1000 | 10 to 100 | 10 to 100 | 100 to 1000 |  |  | 100 to 1000 |
| CCn1c(-c2cccnc2[C@H](C)OC)c2c3cc(ccc31)-c1csc(n1)C[C@H](NC(=O)[C@H](C(C)C)N(C)C(=O)C1COC1)C(=O)N1CCC[C@H](N1)C(=O)OCC(C)(C)C2 [Compound A245] | < 10 | 1000 to 10000 |  | 1000 to 10000 | 1000 to 10000 | 1000 to 10000 | 1000 to 10000 | 1000 to 10000 | > 10000 | 100 to 1000 |  |  |
